According to US20230381125A1:
Where two headings read alike, the source gives them in different places.

What was measured:
SARS-CoV-2 [1] = conditions: cited from earlier work
[2] = target: SARS-CoV-2 binding to its cellular receptor (UniProt P0DTC2+Q9BYF1); conditions: NIH core screening facility data; cited from earlier work
[3] = cited from earlier work
[4] = room temperature; cited from earlier work
[5] = phase 1b oral dosing study; cited from earlier work
[6] = cited from earlier work; for CD4+ and CD8+ Treg responses in vivo / autoreactive Th1 and Th17 cells in vivo: in vivo administration; for disease progression in mouse models of type 1 diabetes, multiple sclerosis, and rheumatoid arthritis / inflammation in a mouse model of type 2 diabetes: in vivo
[7] = rodent models of acute lung injury; cited from earlier work
MHV-1 = MHV-1 infected A/J mice given GABA-R agonist in drinking water; type: in vivo; conditions: for body weight loss vs. plain water (FIG. 4A) / death rate vs. plain water (FIG. 4C) / disease (illness) scores vs. plain water (FIG. 4B) / lung coefficient index vs. plain water (FIG. 4D): Example 2, in water: GABA 2 mg/mL, homotaurine 0.25 mg/mL, baclofen 0.25 mg/mL; for mice that died up to day 14 post-infection: control 3/9 survived; for average body weight loss by day 6: control lost 23%
[8] = test system: anti-CD3-activated human PBMC; conditions: cited from earlier work
SARS-CoV-2 [9] = type: in vivo, K18-hACE2 mice; conditions: for mice that died during the 7-day observation period: control 3/5 died
[10] = large long-term phase III clinical trial; cited from earlier work
[11] = GABA 20 mg/ml in water, from 3 days post-infection
[12] = GABA 20 mg/ml in water, starting immediately after MHV-1 inoculation
[13] = 0.2 mg/mL p=0.049, 20 mg/mL p=0.174, log-rank test

NCCCC(=O)O [GABA, gamma-aminobutyric acid]
interference with SARS-CoV-2 replication (SARS-CoV-2 [1]; NIH core screening facility data): did not interfere | effect on SARS infection or replication (SARS-CoV-2 [1]; NIH drug screening program): no effect | interference with SARS-CoV-2 interaction with its cellular receptor [2]: did not interfere | clinical benefit (ability to reduce seizures) ([3]; hundreds of epilepsy patients): no clinical benefit | adverse effects ([3]; long-term studies in epilepsy patients): no adverse effects | stability [4]: stable at room temperature | safety [5]: safe | CD4+ and CD8+ Treg responses in vivo [6]: promoting | autoreactive Th1 and Th17 cells in vivo [6]: inhibits | disease progression in mouse models of type 1 diabetes, multiple sclerosis, and rheumatoid arthritis [6]: inhibits disease progression | inflammation in a mouse model of type 2 diabetes [6]: limits inflammation | inflammation, alveolar fluid clearance and lung functional recovery [7]: reduce inflammation and improve alveolar fluid clearance and lung functional recovery | body weight loss vs. plain water (FIG. 4A) (MHV-1): significantly reduced | death rate vs. plain water (FIG. 4C) (MHV-1): significantly reduced | disease (illness) scores vs. plain water (FIG. 4B) (MHV-1): significantly reduced | body weight loss vs. control (FIG. 1A) (MHV-1; GABA0 and GABA3 vs. control, p<0.0001): reduced | illness scores vs. control (FIG. 2) (MHV-1; GABA0 and GABA3 vs. control, p<0.001): reduced | survival following MHV-1 infection vs. control (FIG. 1B) (MHV-1; GABA0 p=0.002, GABA3 p=0.001, log rank test): increased | highest average illness score (scale 0-5) (MHV-1; GABA 20 mg/ml in water immediately after inoculation, day 7 post-infection): 1.6 | body weight at 14 days post-infection, % of starting weight (MHV-1; [11]): 90% | maximum mean illness score (scale 0-5) (MHV-1; [11]): 2.5 | mice that died up to day 14 post-infection (MHV-1; GABA 20 mg/ml in water, from 3 days post-infection, death on day 9): 1/9 | average body weight loss by day 6 (MHV-1; GABA 20 mg/ml in water, given from three days after infection): 17% | average body weight loss by day 6 (MHV-1; GABA 20 mg/ml in water, given immediately after MHV-1 infection): 11% | body weight below starting weight 14 days post-infection (MHV-1; [12]): 7% | mice that died up to day 14 post-infection (MHV-1; [12]): none | IL-6, CXCL10/IP-10, CCL4, CCL20, and MCP-3 production [8]: inhibits | death rates vs. plain water (SARS-CoV-2 [9]; [13]): reduced | survival following SARS-CoV2 infection vs. control (FIG. 5) (SARS-CoV-2 [9]; [13]): increased | mice that died during the 7-day observation period (SARS-CoV-2 [9]; GABA 0.2 mg/mL in water, p<0.05): none | mice that died during the 7-day observation period (SARS-CoV-2 [9]; GABA 20 mg/ml in water, p=0.174): 1/5 | viral N1 and N2 transcripts in the lungs (RT-qPCR) vs. control (SARS-CoV-2 [9]; lungs harvested on days 6-7, data not shown): tended to be lower

NCC(CC(=O)O)c1ccc(Cl)cc1 (centres unmarked) [baclofen]
body weight loss vs. plain water (FIG. 4A) (MHV-1): did not significantly decrease | death rate vs. plain water (FIG. 4C) (MHV-1): did not significantly decrease | disease (illness) scores vs. plain water (FIG. 4B) (MHV-1): slight but significant ability to reduce | lung coefficient index vs. plain water (FIG. 4D) (MHV-1): did not significantly decrease

NCCCS(=O)(=O)O [homotaurine]
stability [4]: stable at room temperature | CD4+ and CD8+ Treg responses in vivo [6]: promoting | autoreactive Th1 and Th17 cells in vivo [6]: inhibits | disease progression in mouse models of type 1 diabetes, multiple sclerosis, and rheumatoid arthritis [6]: inhibits disease progression | inflammation in a mouse model of type 2 diabetes [6]: limits inflammation | body weight loss vs. plain water (FIG. 4A) (MHV-1): significantly reduced | death rate vs. plain water (FIG. 4C) (MHV-1): significantly reduced | disease (illness) scores vs. plain water (FIG. 4B) (MHV-1): significantly reduced | lung coefficient index vs. plain water (FIG. 4D) (MHV-1): significantly reduced | efficacy in Alzheimer's disease [10]: not effective | safety [10]: excellent safety record
